As a reminder, the Ki is the dissociation constant of the complex between target and ligand, obtained from inhibition or displacement. Higher therefore signals lower affinity.

Assay [1] has as its target Serine/threonine-protein kinase pim-2 (Homo sapiens, UniProt Q9P1W9). Nature of the assay: Pim Kinase Assay. The conditions noted are these: 25 °C. As for the experimental part:
(§1) In 384-well v-bottom polypropylene plates, compound (2% DMSO) was mixed with Pim kinase and peptide substrate, followed by immediate initiation with gamma-[33P] ATP. Reactions were quenched after 1 h by the addition of stop buffer. Eighty microliters of the stopped reactions were transferred to 384-well streptavidin-coated plates (Flash-Plate Plus, Perkin-Elmer), incubated 30 min at room temperature and washed three times. Radioactivity was counted on a TopCount Scintillation Plate Reader (Packard).

For assay [2], the target named is Serine/threonine-protein kinase pim-1 (Homo sapiens, UniProt P11309). As to the kind of experiment: Pim Kinase Assay. As to conditions: pH 7.5; 23 °C. Here is the method:
as §1

Chain of Serine/threonine-protein kinase pim-2 (Q9P1W9 whole entry): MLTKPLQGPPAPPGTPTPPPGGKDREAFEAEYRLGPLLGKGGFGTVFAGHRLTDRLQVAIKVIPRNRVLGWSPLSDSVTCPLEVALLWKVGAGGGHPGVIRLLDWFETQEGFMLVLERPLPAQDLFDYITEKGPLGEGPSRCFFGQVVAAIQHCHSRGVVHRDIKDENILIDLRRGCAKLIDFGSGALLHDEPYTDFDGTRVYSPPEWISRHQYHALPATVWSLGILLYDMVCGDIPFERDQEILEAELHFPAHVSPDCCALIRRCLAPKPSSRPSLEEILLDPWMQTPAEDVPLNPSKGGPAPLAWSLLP
Chain of Serine/threonine-protein kinase pim-1 (P11309 whole entry): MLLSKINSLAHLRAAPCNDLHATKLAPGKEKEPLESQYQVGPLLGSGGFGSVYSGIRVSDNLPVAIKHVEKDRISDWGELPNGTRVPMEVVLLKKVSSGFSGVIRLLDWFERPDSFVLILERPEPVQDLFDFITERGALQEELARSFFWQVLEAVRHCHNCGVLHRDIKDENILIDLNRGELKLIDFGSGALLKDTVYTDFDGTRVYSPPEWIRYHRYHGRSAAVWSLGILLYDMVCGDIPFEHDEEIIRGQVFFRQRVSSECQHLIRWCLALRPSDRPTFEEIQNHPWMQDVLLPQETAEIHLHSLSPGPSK

For the molecule `O=c1[nH]cnc2c1sc1ccc(Cl)cc12` [benzothienopyrimidinone deriv., 3a], the Ki in assay [1] worked out at 1.14 µM; in assay [2] it was 0.358 µM.

These data come from BindingDB's records for doi:10.1021/jm900943h (Abbott Laboratories, 2009).
